Patent US20080194020A1, “Methods For Producing Dendritic Cells That Have Acquired Ctl-Inducing Ability” (Medical and Biological Laboratories Co., Ltd., priority 2004, published 2008)
Entries after “also recorded” stand apart in the source; their conditions may differ.

Experiments:
Format in all cases: cell-based, mouse
DC2.4 cells [1] = assay: MHC class I cross-presentation by DC2.4 cells to OT-I CD8+ T cells (IL-2 ELISA)
Description: Whether knock-down of cellular components involved in ERAD decreases the cross-presentation of exogenous OVA antigen was examined using a system for evaluating the level of antigen presentation, which uses naive CD8^+ T cells from OT-I mice and DC2.4 cells. The DC2.4 cells used as a model of dendritic cells are of the H-2Kb mouse MHC class I haplotype. OT-I (H-2Kb) mice are transgenic mice expressing a T cell receptor (TCRα and β) that recognizes an antigenic peptide (SIINFEKL) (SEQ ID NO: 15) derived from OVA presented on the H-2Kb molecules. The CD8^+ cells of OT-I mice are activated when they recognize OVA peptides presented by BMDCs derived from H-2Kb mice or by DC2.4 cells. When OVA or bOVA is incubated with and affixed onto DC2.4 cells and the cells are further incubated with naive CD8^+ T cells of OT-I mice, the amount of IL-2 produced by OT-I CD8^+ T cells serves as an index of T-cell stimulation as a result of OVA antigen presented by DC2.4 cells.
Parental or knocked-down DC2.4 cells were pre-incubated in a culture medium supplemented with 50 μg mL^−1 polymyxin B for 30 minutes in the presence or absence of lactacystin or MG-132, and incubated with OVA (250 μg mL^−1) or SIINFEKL peptides (10 ng mL^−1) for six hours. The cells were washed, fixed with 1% paraformaldehyde, and aliquoted into microtiter plates (5×10^4 per well). 5×10^4 CD8^+ T cells purified from splenocytes of OT-1 mice using magnetic beads were added to each well and after a 24-hour incubation, the IL-2 secretion was measured by ELISA (BD Biosciences) in triplicate.
DC2.4 cells were incubated with OVA (0, 50, or 250 μg/mL) in RPMI1640/10c% FCS for six hours at 37° C., in the presence or absence of pig-derived HSP90 (10 μg/mL). After washing away the antigen and HSP, OT-I CD8^+ T cells were added, cells were cultured overnight at 37° C., and the amount of IL-2 comprised in the supernatant was measured by the ELISA method.
The timing of the addition of HSP90 (10 μg/mL) and OVA (250 μg/mL) to DC2.4 cells was varied, and the effect on class I antigen presentation was observed. (i) HSP90 was added first, DC2.4 cells were washed, and then OVA was added. (ii) HSP90 and OVA were added simultaneously to DC2.4 cells. (iii) OVA was added first, and after washing DC2.4 cells, HSP90 was added. The results obtained under these three conditions were compared. As a control for all these conditions, an experiment in which only OVA, but not HSP90, was added was also carried out.
Under condition (i), HSP90 was added to DC2.4 cells, the cells were cultured for 30 minutes and then washed to remove HSP90. Next, OVA was added and the cells were cultured for three hours. Thereafter, OVA was removed by washing, and cells were cultured in just the culture medium for three hours. DC2.4 cells activated with OVA by the above procedure were plated in a 96-well plate, OT-I mouse-derived CD8^+ T cells were added to this, and after culturing overnight, the amount of IL-2 released into the supernatant was measured by ELISA.
Under condition (ii), OVA and HSP90 were added simultaneously to DC2.4 cells, cells were cultured for three hours, then washed, and cultured in just the culture medium for three hours. Thereafter, the procedures to investigate the activation of OT-I mouse-derived CD8^+ T cells was carried out similarly to in (i) above.
Under condition (iii), OVA was first added to DC2.4 cells, cells were cultured for three hours, and then washed to remove OVA. Next, HSP90 was added, and the cells were cultured for another three hours. The procedures that follow were carried out similarly to that of (i) and (ii). Meanwhile, timings were set such that the incubation times during the stage in which cells are in contact with OVA and the stage at which OVA has been taken up were the same under conditions (i) to (iii).

[2] = test system: bone marrow-derived dendritic cells (BMDCs); assay: MHC class II antigen presentation by BMDCs to OT-II CD4+ T cells (IL-2 ELISA); details: HSP90 10 μg/mL added at the same time as OVA (0, 50 or 250 μg/mL)
Protocol: Mouse bone marrow-derived dendritic cells (BMDCs) were prepared as follows: cells were taken out from mouse bone marrow and cultured for five days in RPMI medium containing GM-CSF and 5% FCS, during which the medium was partially exchange. This culturing method leads to growth of macrophages, dendritic cells, and such; therefore, dendritic cells alone were collected using CD11c magnetic beads, and these cells were used as bone marrow-derived dendritic cells (BMDCs).
The bone marrow-derived dendritic cells (BMDCs) prepared as above or the mouse dendritic cell line DC2.4 cells were plated in a 96-well plate at 5×10^4 cells per well. Next, in the presence of 50 μg/mL of polynyxin B, which is an endotoxin inhibitor, OVA (0, 50, or 250 μg/mL)and HSP90 (0 or 10 μg/mL) were added, the total fluid volume was adjusted to 200 μL, and this was cultured overnight at 37° C. Since endotoxin is known to activate DCs, polymyxin B was added to eliminate the effects of its contamination of reagents, equipment, and such. After culturing, the aforementioned cells in the wells were washed twice to remove the remaining OVA and HSP90 that were not taken up by the cells. […] The wells were centrifuged, the supernatant was collected, and the amount of IL-2 in the supernatant was measured by ELISA.

DC2.4 cells [3] = assay: Polyubiquitination of antigenic protein taken up by DC2.4 cells (SDS-PAGE, Western blot with anti-polyubiquitin antibody); details: DC2.4 cells incubated with GST-OVA in the presence or absence of Hsp90
Protocol: There are reports that when the KDEL sequence (Lys-Asp-Glu-Leu) (SEQ ID NO: 3), an endoplasmic reticulum localization sequence, is added to the carboxyl terminus of a protein localized in the ER lumen, the protein is repeatedly transported between the ER and Golgi apparatus, and ERAD of that protein is promoted. Therefore, DC2.4 cells were made to take up OVA with KDEL (SEQ ID NO: 3) added to its C-terminus, and OVA that was polyubiquitinated after uptake was observed by SDS-PAGE and Western blotting. OVA to which a KDEL sequence (SEQ ID NO: 3) was added was constructed and expressed as follows: using a plasmid comprising a DNA sequence encoding OVA as a template, PCR was performed using oligo-1 (SEQ ID NO: 10) and oligo-2 (SEQ ID NO: 11) as primers. The amplified PCR product of approximately 1100 bp was introduced into a pCR-Blunt vector (Invitrogen) to obtain vector-1. Oligo-3 (SEQ ID NO: 12) and oligo-4 (SEQ ID NO: 13) were annealed, and the obtained gene fragment of approximately 100 bp was introduced into the pCR-Blunt vector to obtain vector-2. Vector-2 was digested with SpeI, the obtained gene fragment of approximately 130 bp was introduced into vector-1 that had been digested with NheI to obtain vector-3. An approximately 1250-bp gene fragment (OVA-KDEL) obtained when vector-3 was digested with BamHI/SpeI was introduced into a vector for gene expression, and then expressed. […]

DC2.4 cells [4] = assay: Uptake of antigenic protein into DC2.4 cells
Protocol: Next, DC2.4 cells were incubated for a set amount of time with OVA in the presence or absence of lactacystin (LC), and OVA taken up into the cells was measured. OVA taken up into cells in the presence or absence of Hsp90 was measured similarly.

BMDCs = assay: MHC class I antigen presentation by BMDCs to OT-I CD8+ cells; details: BMDCs incubated with OVA in the presence or absence of HSP90

Substance: HSP90: pig-derived HSP90, molecular chaperone (heat shock protein) of about 90 kDa; porcine sequence SEQ ID NO: 1
- effect on OVA antigen presentation to OT-I CD8+ T cells (IL-2) (DC2.4 cells [1]; DC2.4 cells, OVA 0, 50 or 250 μg/mL, six hours, pig-derived HSP90 10 μg/mL versus OVA alone): a stronger antigen presentation was observed; also recorded: increase antigen presentation
- Hsp90 concentration dependence of antigen presentation ability (DC2.4 cells [1]; DC2.4 cells, Hsp90 10 μg/mL and 50 μg/mL): increased in an Hsp90 concentration-dependent manner; also recorded: antigen-presenting ability increases in a manner dependent on Hsp90 concentration
- effect on IL-2 production versus OVA-only control (DC2.4 cells [1]; condition (i): HSP90 added first, cells washed, then OVA): cannot be observed unless it is added simultaneously
- effect on IL-2 production versus OVA-only control (DC2.4 cells [1]; condition (ii): HSP90 10 μg/mL and OVA 250 μg/mL added simultaneously to DC2.4 cells): increase in the amount of IL-2 production
- effect on IL-2 production versus OVA-only control (DC2.4 cells [1]; condition (iii): OVA added first, cells washed, then HSP90): not to yield any effect
- effect on IL-2 production by OT-II CD4+ T cells (MHC class II presentation) [2]: not enhanced
- effect on polyubiquitination of GST-OVA taken up (DC2.4 cells [3]): the increase in polyubiquitination in the presence of HSP90 is very pronounced
- effect on polyubiquitination of GST-OVA taken up (DC2.4 cells [3]; listed as Hsp90): more strongly polyubiquitinated
- effect on OVA taken up into cells (DC2.4 cells [4]; DC2.4 cells incubated with OVA in the presence or absence of Hsp90 and lactacystin): take up OVA into cells more efficiently; also recorded: uptake of OVA increased
- effect on amount of GST-OVA taken up (DC2.4 cells [4]; FIG. 10 lane 4 versus lane 3, presence or absence of HSP90): the increase in the amount taken up in the presence of HSP90 is not great
- effect on OVA antigen presentation to OT-I CD8+ cells (BMDCs): increase antigen presentation
